# Results taken from patent US20220117938A1, “COMBINATON THERAPY WITH A DON PRODRUG AND AN IMMUNE CHECKPOINT INHIBITOR” (DRACEN PHARMACEUTICALS, INC., priority 2019, published 2022).
# System: MC-38 tumors
# Assay: Anti-tumor efficacy of Compound 1 in the subcutaneous MC-38 model: schedule comparison (Example 3)
# Assay type: in vivo, Mus musculus
# Description: Female C57BL/6 mice were inoculated subcutaneously at right flank with MC-38 cells for tumor development. Six days after tumor inoculation, 64 mice with tumor size ranging from 50-100 mm^3 (average tumor size 71 mm^3) were selected and assigned into 8 groups using stratified randomization with 8 mice per group based upon their tumor volumes. The treatments were started from the day of randomization (defined as D0), Group 1 was treated with Vehicle (Tween 80:Ethanol:Saline—5:5:90 v/v/v), S.C. QD*20 days, Group 2 was treated with Compound 1 at 1 mpk S.C. QD*28 days, Group 3 was treated with Compound 1 at 0.5 mpk S.C. QD*28 days, Group 4 was treated with Compound 1 at 1.4 mpk S.C. 5-days ON 2-days OFF×4 cycles, Group 5 was treated with Compound 1 at 0.7 mpk S.C. 5-days ON 2-days OFF×4 cycles, Group 6 was treated with Compound 1 at 3 mpk qd×5, followed by 1 mpk qd×23, S.C. QD, Group 7 was treated with Compound 1 at 1.5 mpk qd×5, followed by 0.5 mpk qd×23, S.C. QD and Group 8 was treated with Compound 1 at 1.4 mpk 10-days ON 4-days OFF×2 cycles, S.C.
# Species: Mus musculus; Strain: C57BL/6; Age: 6-8 weeks; Sex: female; Body weight (at treatment start): 16-20 g.
# The MC-38 tumor cells were maintained in vitro as a monolayer culture in DMEM medium supplemented with 10% heat inactivated fetal bovine serum and 100 μg/mL penicillin streptomycin at 37° C. in an atmosphere of 5% CO2 in air. The tumor cells were routinely subcultured twice weekly by trypsin-EDTA treatment. The cells growing to a confluency around 70%-80% were harvested and counted for tumor inoculation. The cultured MC-38 were harvested, re-suspended in base medium at a density of 1×10^7 cells/mL with viability>90%. Each mouse was inoculated subcutaneously at the right flank with 1×10^6 cells in 0.1 ml base medium for tumor development.
# The treatments were started on day 6 after tumor inoculation when the tumor size reached 50-100 mm^3 (average tumor size 71 mm^3). Each group consisted of 8 tumor-bearing mice. The testing article was administrated to the mice at a dosing volume of 10 mL/Kg according to the predetermined regimen as shown in Table 3-1.
# Tumor sizes were measured three times a week in two dimensions using a caliper, and the volume expressed in mm^3 using the formula: V=0.5 a×b^2 where a and b are the long and short diameters of the tumor, respectively. The tumor sizes were then used for the calculations of both tumor growth inhibition (TGI) and T/C values.
# TGI is calculated for each group using the formula: […]
# TVTreatment_DayN is the average tumor volume of a treatment group on a given day, TVTreatment_Day0 is the average tumor volume of the treatment group on the first day of treatment, TVVehicle_DayN is the average tumor volume of the vehicle control group on a given day, and TVVehicle_Day0 is the average tumor volume of the vehicle group on the first day of treatment.
# The T/C value (in percent) is an indication of antitumor effectiveness, T/C (%)=RTVTreatment/RTVControl×100% (RTVTreatment: the mean RTV of the treatment group; RTVControl: the mean RTV of the vehicle treated group). RTV (relative tumor volume)=TVDayN/TVDay0. TVDayN and TVDay0 is the tumor volume on day N and Day 0 respectively. T/C (%)≤42% is considered as significant antitumor activity and <10% is considered as highly significant antitumor activity by the National Cancer Institute criteria.
# Relative change of body weight (RCBW) of each mouse was calculated according to the following formula: […]
# Animal survival curve: When an individual animal reached to the termination endpoint (TV>2000 mm^3), the mouse was euthanized. The time from treatment initiation to the termination was deemed as its survival time. Survival curve was plotted by Kaplan-Meier method. Median survival time (MST) was calculated for each group. Increase of life span (ILS) was calculated according to the following formula: […]
# ILS (%)>25% is considered as a biologically significant survival benefit. […]
compound,measurement,setting,value
"CC(=O)N[C@@H](Cc1c[nH]c2ccccc12)C(=O)N[C@@H](CCC(=O)C=[N+]=[N-])C(=O)OC(C)C [Compound 1, Isopropyl (S)-2-((S)-2-acetamido-3-(1H-indol-3-yl)propanamido)-6-diazo-5-oxohexanoate]",Tumor volume (Mean ± SEM),"Day 20, Group 3: 0.5 mg/kg qdx28, sc",7 ± 1 mm^3
same,Tumor volume (Mean ± SEM),"Day 20, Group 4: 1.4 mg/kg 5-days ON 2-days OFF x 4 cycles, sc",0 ± 0 mm^3
same,Tumor volume (Mean ± SEM),"Day 20, Group 5: 0.7 mg/kg 5-days ON 2-days OFF x 4 cycles, sc",2 ± 1 mm^3
same,Tumor volume (Mean ± SEM),"Day 20, Group 6: 3 mpk qdx5 followed by 1 mpk qdx23, sc",5 ± 2 mm^3
same,Tumor volume (Mean ± SEM),"Day 20, Group 7: 1.5 mpk qdx5 followed by 0.5 mpk qdx23, sc",5 ± 1 mm^3
same,Tumor volume (Mean ± SEM),"Day 20, Group 8: 1.4 mg/kg 10-days ON 4-days OFF x 2 cycles, sc",6 ± 2 mm^3
same,Tumor volume (Mean ± SEM),"Day 22, Group 2: 1 mg/kg qdx28, sc",2 ± 1 mm^3
same,Tumor volume (Mean ± SEM),"Day 22, Group 3: 0.5 mg/kg qdx28, sc",6 ± 2 mm^3
same,Tumor volume (Mean ± SEM),"Day 22, Group 4: 1.4 mg/kg 5-days ON 2-days OFF x 4 cycles, sc",0 ± 0 mm^3
same,Tumor volume (Mean ± SEM),"Day 22, Group 5: 0.7 mg/kg 5-days ON 2-days OFF x 4 cycles, sc",2 ± 1 mm^3
same,Tumor volume (Mean ± SEM),"Day 22, Group 6: 3 mpk qdx5 followed by 1 mpk qdx23, sc",3 ± 1 mm^3
same,Tumor volume (Mean ± SEM),"Day 22, Group 7: 1.5 mpk qdx5 followed by 0.5 mpk qdx23, sc",6 ± 1 mm^3
same,Tumor volume (Mean ± SEM),"Day 22, Group 8: 1.4 mg/kg 10-days ON 4-days OFF x 2 cycles, sc",5 ± 2 mm^3
same,Tumor volume (Mean ± SEM),"Day 25, Group 2: 1 mg/kg qdx28, sc",5 ± 1 mm^3
same,Tumor volume (Mean ± SEM),"Day 25, Group 3: 0.5 mg/kg qdx28, sc",6 ± 1 mm^3
same,Tumor volume (Mean ± SEM),"Day 25, Group 4: 1.4 mg/kg 5-days ON 2-days OFF x 4 cycles, sc",0 ± 0 mm^3
same,Tumor volume (Mean ± SEM),"Day 25, Group 5: 0.7 mg/kg 5-days ON 2-days OFF x 4 cycles, sc",2 ± 1 mm^3
same,Tumor volume (Mean ± SEM),"Day 25, Group 6: 3 mpk qdx5 followed by 1 mpk qdx23, sc",2 ± 1 mm^3
same,Tumor volume (Mean ± SEM),"Day 25, Group 7: 1.5 mpk qdx5 followed by 0.5 mpk qdx23, sc",4 ± 1 mm^3
same,Tumor volume (Mean ± SEM),"Day 25, Group 8: 1.4 mg/kg 10-days ON 4-days OFF x 2 cycles, sc",5 ± 2 mm^3
same,Tumor volume (Mean ± SEM),"Day 27, Group 2: 1 mg/kg qdx28, sc",6 ± 2 mm^3
same,Tumor volume (Mean ± SEM),"Day 27, Group 3: 0.5 mg/kg qdx28, sc",7 ± 1 mm^3
same,Tumor volume (Mean ± SEM),"Day 27, Group 4: 1.4 mg/kg 5-days ON 2-days OFF x 4 cycles, sc",0 ± 0 mm^3
same,Tumor volume (Mean ± SEM),"Day 27, Group 5: 0.7 mg/kg 5-days ON 2-days OFF x 4 cycles, sc",1 ± 1 mm^3
same,Tumor volume (Mean ± SEM),"Day 27, Group 6: 3 mpk qdx5 followed by 1 mpk qdx23, sc",2 ± 1 mm^3
same,Tumor volume (Mean ± SEM),"Day 27, Group 7: 1.5 mpk qdx5 followed by 0.5 mpk qdx23, sc",4 ± 1 mm^3
same,Tumor volume (Mean ± SEM),"Day 27, Group 8: 1.4 mg/kg 10-days ON 4-days OFF x 2 cycles, sc",6 ± 2 mm^3
same,Tumor volume (Mean ± SEM),"Day 29, Group 2: 1 mg/kg qdx28, sc",17 ± 11 mm^3
same,Tumor volume (Mean ± SEM),"Day 29, Group 3: 0.5 mg/kg qdx28, sc",13 ± 3 mm^3
same,Tumor volume (Mean ± SEM),"Day 29, Group 4: 1.4 mg/kg 5-days ON 2-days OFF x 4 cycles, sc",1 ± 1 mm^3
same,Tumor volume (Mean ± SEM),"Day 29, Group 5: 0.7 mg/kg 5-days ON 2-days OFF x 4 cycles, sc",2 ± 1 mm^3
same,Tumor volume (Mean ± SEM),"Day 29, Group 6: 3 mpk qdx5 followed by 1 mpk qdx23, sc",5 ± 3 mm^3
same,Tumor volume (Mean ± SEM),"Day 29, Group 7: 1.5 mpk qdx5 followed by 0.5 mpk qdx23, sc",10 ± 3 mm^3
same,Tumor volume (Mean ± SEM),"Day 29, Group 8: 1.4 mg/kg 10-days ON 4-days OFF x 2 cycles, sc",17 ± 5 mm^3
same,Tumor volume (Mean ± SEM),"Day 32, Group 2: 1 mg/kg qdx28, sc",92 ± 47 mm^3
same,Tumor volume (Mean ± SEM),"Day 32, Group 3: 0.5 mg/kg qdx28, sc",45 ± 9 mm^3
same,Tumor volume (Mean ± SEM),"Day 32, Group 4: 1.4 mg/kg 5-days ON 2-days OFF x 4 cycles, sc",13 ± 7 mm^3
same,Tumor volume (Mean ± SEM),"Day 32, Group 5: 0.7 mg/kg 5-days ON 2-days OFF x 4 cycles, sc",20 ± 12 mm^3
same,Tumor volume (Mean ± SEM),"Day 32, Group 6: 3 mpk qdx5 followed by 1 mpk qdx23, sc",51 ± 35 mm^3
same,Tumor volume (Mean ± SEM),"Day 32, Group 7: 1.5 mpk qdx5 followed by 0.5 mpk qdx23, sc",44 ± 12 mm^3
same,Tumor volume (Mean ± SEM),"Day 32, Group 8: 1.4 mg/kg 10-days ON 4-days OFF x 2 cycles, sc",73 ± 19 mm^3
same,Tumor volume (Mean ± SEM),"Day 34, Group 2: 1 mg/kg qdx28, sc",190 ± 81 mm^3
same,Tumor volume (Mean ± SEM),"Day 34, Group 3: 0.5 mg/kg qdx28, sc",121 ± 20 mm^3
same,Tumor volume (Mean ± SEM),"Day 34, Group 4: 1.4 mg/kg 5-days ON 2-days OFF x 4 cycles, sc",37 ± 21 mm^3
same,Tumor volume (Mean ± SEM),"Day 34, Group 5: 0.7 mg/kg 5-days ON 2-days OFF x 4 cycles, sc",32 ± 16 mm^3
same,Tumor volume (Mean ± SEM),"Day 34, Group 6: 3 mpk qdx5 followed by 1 mpk qdx23, sc",114 ± 79 mm^3
same,Tumor volume (Mean ± SEM),"Day 34, Group 7: 1.5 mpk qdx5 followed by 0.5 mpk qdx23, sc",112 ± 24 mm^3
same,Tumor volume (Mean ± SEM),"Day 34, Group 8: 1.4 mg/kg 10-days ON 4-days OFF x 2 cycles, sc",168 ± 43 mm^3
same,Tumor volume (Mean ± SEM),"Day 36, Group 2: 1 mg/kg qdx28, sc",454 ± 212 mm^3
same,Tumor volume (Mean ± SEM),"Day 36, Group 3: 0.5 mg/kg qdx28, sc",285 ± 42 mm^3
same,Tumor volume (Mean ± SEM),"Day 36, Group 4: 1.4 mg/kg 5-days ON 2-days OFF x 4 cycles, sc",100 ± 47 mm^3
same,Tumor volume (Mean ± SEM),"Day 36, Group 5: 0.7 mg/kg 5-days ON 2-days OFF x 4 cycles, sc",125 ± 63 mm^3
same,Tumor volume (Mean ± SEM),"Day 36, Group 6: 3 mpk qdx5 followed by 1 mpk qdx23, sc",288 ± 174 mm^3
same,Tumor volume (Mean ± SEM),"Day 36, Group 7: 1.5 mpk qdx5 followed by 0.5 mpk qdx23, sc",364 ± 69 mm^3
same,Tumor volume (Mean ± SEM),"Day 36, Group 8: 1.4 mg/kg 10-days ON 4-days OFF x 2 cycles, sc",479 ± 121 mm^3
same,Tumor volume (Mean ± SEM),"Day 39, Group 2: 1 mg/kg qdx28, sc",1109 ± 398 mm^3
same,Tumor volume (Mean ± SEM),"Day 39, Group 3: 0.5 mg/kg qdx28, sc",592 ± 61 mm^3
same,Tumor volume (Mean ± SEM),"Day 39, Group 4: 1.4 mg/kg 5-days ON 2-days OFF x 4 cycles, sc",238 ± 72 mm^3
same,Tumor volume (Mean ± SEM),"Day 39, Group 5: 0.7 mg/kg 5-days ON 2-days OFF x 4 cycles, sc",242 ± 114 mm^3
same,Tumor volume (Mean ± SEM),"Day 39, Group 6: 3 mpk qdx5 followed by 1 mpk qdx23, sc",723 ± 345 mm^3
same,Tumor volume (Mean ± SEM),"Day 39, Group 7: 1.5 mpk qdx5 followed by 0.5 mpk qdx23, sc",904 ± 174 mm^3
same,Tumor volume (Mean ± SEM),"Day 39, Group 8: 1.4 mg/kg 10-days ON 4-days OFF x 2 cycles, sc",945 ± 260 mm^3
same,Tumor volume (Mean ± SEM),"Day 41, Group 3: 0.5 mg/kg qdx28, sc",1718 ± 136 mm^3
same,Tumor volume (Mean ± SEM),"Day 41, Group 4: 1.4 mg/kg 5-days ON 2-days OFF x 4 cycles, sc",420 ± 129 mm^3
same,"Mice completely tumor free on D67 (""cured"")","Group 5: 0.7 mpk S.C. 5-days ON 2-days OFF×4 cycles, 8 mice per group",Four
